Where two headings read alike, the source gives them in different places.
How the values were obtained:
Type in all cases: biochemical
[1] = target: AChE from Electrophorus electricus (EeAChE) (Electrophorus electricus, UniProt O42275); assay: Ellman cholinesterase assay, purified AChE from Electrophorus electricus
Experimental: (§1) The compounds selected as inhibitors of AChE activity were obtained commercially from MolPort (http://www.molport.com/buy-chemicals/index). They were dissolved in dimethyl sulfoxide (DMSO), at a final concentration of 0.1%.
(§2) The cholinesterase activities were measured based on Ellman et al.'s method. The increase of absorbance was monitored at 412 nm in a reaction mixture containing 10 mM potassium phosphate buffer, pH 7.4, and 1 mM DTNB [5,5′-dithiobis-(2-nitrobenzoic) acid] (from Sigma) in the presence of one of the following enzymes: purified AChE from Electrophorus electricus (EeAChE)—0.05 U/ml, AChE from human erythrocytes (HsAChE), AChE from Danio rerio (DrAChE)—0.5 μg, and purified BChE from Equus ferus (EfBChE)—0.05 U/mL. The compounds (or only 0.1% DMSO for the control group) were preincubated with the enzyme during 10 minutes at room temperature, and the reaction was started with the addition of acetylthiocholine or butyrylthiocholine (0.8 mM).
(§3) The IC50 values were determined by nonlinear regression (log concentration-inhibition curves). Data were analyzed by one-way analysis of variance (ANOVA) followed by Student-Newman-Keuls test. Statistical significance was set at P < 0.05. The statistics have been performed using GraphPad Prism 5 (version 5.01, GraphPad Software, Inc., USA).

[2] = target: T1, AChE from Danio rerio (DrAChE) (Danio rerio, UniProt Q9DDE3); assay: Ellman cholinesterase assay, zebrafish brain homogenate AChE
T1 construct: zebrafish brains were homogenized on ice in 60 volumes (v/w) of Tris-citrate buffer; from tissue; host or cells: zebrafish brain homogenate
Experimental: as §1, §2
The DrAChE assay was performed as previously described by Rosemberg et al. (2010). Briefly, zebrafish brains were homogenized on ice in 60 volumes (v/w) of Tris-citrate buffer (50 mM Tris, 2 mM EDTA, 2 mM EGTA, and pH 7.4, with citric acid) using a Potter-Elvehjem-type glass homogenizer. Samples (0.5 μg protein) were preincubated for 10 min at 25°C and the enzyme activity was further assessed in the absence and the presence of the selected compounds.
as §3

[3] = target: T2, AChE from human erythrocytes (HsAChE) (Homo sapiens, UniProt P22303); assay: Ellman cholinesterase assay, human erythrocyte ghost AChE
T2 construct: from tissue; host or cells: human erythrocyte ghosts from blood of healthy donors
Experimental: as §1, §2
Haemoglobin-free erythrocyte ghosts were prepared according to the method previously described. Blood of nonfasted healthy voluntary donors was collected. Heparinized human blood was centrifuged at 3000 g for 10 min. The packed erythrocytes were diluted in 20 volumes (w/v) of hypotonic sodium/potassium phosphate buffer (6.7 mM, pH 7.4) to facilitate the hemolysis, followed by centrifugation at 30.000 g for 30 min at 4°C. The supernatant was removed and the pellet resuspended in hypotonic phosphate buffer. After two additional washing cycles, the pellet was resuspended in sodium/potassium phosphate buffer (0.1 M, pH 7.4) and then centrifuged again at 30.000 g for 30 min at 4°C. The supernatant was gently removed and the pellet was stored. Aliquots of the erythrocyte ghosts were stored at −20°C until usage within one week. The sample was diluted 10 times for AChE activity measurement. Fifty μL of the stored ghost preparation, in a final volume of 200 μL, was used for the assay. Hemoglobin content from ghost membranes was measured at 540 nm as the cyano-met-Hb form, but no hemoglobin was detected.
as §3

[4] = target: BChE from Equus ferus (EfBChE) (Equus caballus, UniProt P81908); assay: Ellman cholinesterase assay, purified BChE from Equus ferus
Experimental: as §1, §2, §3

[5] = purified EeAChE 0.05 U/ml, 10 min preincubation, acetylthiocholine 0.8 mM, read-out: IC50 EeAChE
[6] = zebrafish brain homogenate 0.5 μg protein, 10 min preincubation, read-out: IC50 DrAChE
[7] = human erythrocyte ghosts, 10 min preincubation, read-out: IC50 HsAChE
[8] = purified BChE 0.05 U/mL, 10 min preincubation, butyrylthiocholine 0.8 mM, read-out: IC50 EcBChE

T2 sequence (P22303 other isoform, or with tags, fused parts or gaps): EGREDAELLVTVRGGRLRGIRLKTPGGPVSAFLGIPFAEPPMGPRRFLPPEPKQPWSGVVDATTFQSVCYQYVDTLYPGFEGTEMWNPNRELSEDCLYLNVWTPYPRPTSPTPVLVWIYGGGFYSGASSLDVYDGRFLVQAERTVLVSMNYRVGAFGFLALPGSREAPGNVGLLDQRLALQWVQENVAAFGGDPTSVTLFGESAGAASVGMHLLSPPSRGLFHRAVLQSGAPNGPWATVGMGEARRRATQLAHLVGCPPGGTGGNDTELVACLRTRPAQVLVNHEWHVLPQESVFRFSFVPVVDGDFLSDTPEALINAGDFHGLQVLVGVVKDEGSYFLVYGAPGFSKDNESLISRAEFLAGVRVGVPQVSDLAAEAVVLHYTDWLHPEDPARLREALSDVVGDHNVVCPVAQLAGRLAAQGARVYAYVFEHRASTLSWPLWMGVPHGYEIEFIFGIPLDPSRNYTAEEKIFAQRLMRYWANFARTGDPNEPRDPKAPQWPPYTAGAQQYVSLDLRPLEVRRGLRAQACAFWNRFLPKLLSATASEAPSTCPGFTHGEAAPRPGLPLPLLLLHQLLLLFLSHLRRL
AChE from Electrophorus electricus (EeAChE), sequence (O42275 24-633): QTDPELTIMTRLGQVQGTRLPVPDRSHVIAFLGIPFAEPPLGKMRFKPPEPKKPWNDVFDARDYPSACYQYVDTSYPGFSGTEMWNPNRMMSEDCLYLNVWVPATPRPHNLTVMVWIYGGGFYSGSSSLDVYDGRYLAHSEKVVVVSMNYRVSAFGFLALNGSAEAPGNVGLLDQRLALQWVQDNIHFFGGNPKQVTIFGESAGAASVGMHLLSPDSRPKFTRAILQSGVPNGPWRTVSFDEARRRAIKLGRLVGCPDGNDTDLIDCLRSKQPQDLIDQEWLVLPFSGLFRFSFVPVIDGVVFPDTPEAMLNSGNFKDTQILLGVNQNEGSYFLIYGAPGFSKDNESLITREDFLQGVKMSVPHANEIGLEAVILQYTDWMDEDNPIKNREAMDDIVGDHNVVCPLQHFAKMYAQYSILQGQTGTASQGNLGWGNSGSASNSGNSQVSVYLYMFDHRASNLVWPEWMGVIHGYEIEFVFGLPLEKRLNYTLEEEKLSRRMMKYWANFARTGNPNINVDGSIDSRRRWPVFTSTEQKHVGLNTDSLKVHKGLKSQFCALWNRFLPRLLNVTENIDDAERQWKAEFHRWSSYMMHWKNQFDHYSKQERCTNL
T1 sequence (Q9DDE3 24-634): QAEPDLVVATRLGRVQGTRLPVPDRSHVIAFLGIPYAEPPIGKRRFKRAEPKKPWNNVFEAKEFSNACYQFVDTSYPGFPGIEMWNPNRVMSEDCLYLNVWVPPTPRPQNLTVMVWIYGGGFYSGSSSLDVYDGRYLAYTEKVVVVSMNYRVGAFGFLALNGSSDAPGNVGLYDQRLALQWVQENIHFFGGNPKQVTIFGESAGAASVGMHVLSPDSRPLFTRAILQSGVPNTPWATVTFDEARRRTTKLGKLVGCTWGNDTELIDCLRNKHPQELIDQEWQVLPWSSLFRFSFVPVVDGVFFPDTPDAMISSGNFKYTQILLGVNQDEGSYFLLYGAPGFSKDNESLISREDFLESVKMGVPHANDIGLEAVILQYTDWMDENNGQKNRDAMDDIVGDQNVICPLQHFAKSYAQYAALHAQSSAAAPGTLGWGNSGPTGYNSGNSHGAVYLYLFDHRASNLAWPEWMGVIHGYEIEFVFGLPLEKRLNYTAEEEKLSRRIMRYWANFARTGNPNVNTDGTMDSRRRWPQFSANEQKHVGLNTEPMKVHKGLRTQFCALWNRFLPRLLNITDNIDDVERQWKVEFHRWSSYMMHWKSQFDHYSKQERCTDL
BChE from Equus ferus (EfBChE), sequence (P81908 whole entry): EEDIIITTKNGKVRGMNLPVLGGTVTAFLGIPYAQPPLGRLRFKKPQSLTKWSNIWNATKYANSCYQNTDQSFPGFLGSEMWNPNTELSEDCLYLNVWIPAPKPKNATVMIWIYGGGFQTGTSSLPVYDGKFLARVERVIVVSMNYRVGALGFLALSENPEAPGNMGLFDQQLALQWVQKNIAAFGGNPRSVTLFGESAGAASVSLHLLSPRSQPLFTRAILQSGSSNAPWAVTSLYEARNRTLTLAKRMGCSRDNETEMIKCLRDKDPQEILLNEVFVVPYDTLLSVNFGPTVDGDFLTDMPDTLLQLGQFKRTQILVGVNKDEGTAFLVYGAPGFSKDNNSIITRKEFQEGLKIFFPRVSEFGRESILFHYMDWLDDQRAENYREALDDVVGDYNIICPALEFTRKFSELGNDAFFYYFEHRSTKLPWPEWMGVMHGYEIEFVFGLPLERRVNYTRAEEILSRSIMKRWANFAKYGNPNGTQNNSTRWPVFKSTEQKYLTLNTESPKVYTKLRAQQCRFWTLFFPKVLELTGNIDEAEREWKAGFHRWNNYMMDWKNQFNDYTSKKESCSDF

SMILES | IC50 [1, 5] [µM] | IC50 [2, 6] [µM] | IC50 [3, 7] [µM] | IC50 [4, 8] [µM] | IC50 [1] [µM] | IC50 [2] [µM] | IC50 [3] [µM] | IC50 [4] [µM]
COc1c2c(cc3c1[C@H](CC(=O)c1cc4c(cc1C)C(C)(C)[C@@H](C)C4(C)C)[N+](C)(C)CC3)OCO2 [B] | 578 ± 84.3 | 21.2 ± 1.44 | 37.5 ± 1.97 | 4.02 ± 0.78 | – | – | – | –
O=c1ccc2ccc(OCC[N+]34CCC(CC3)C(C(O)(c3ccccc3)c3ccccc3)C4)cc2o1 (stereo not shown) [A] | – | – | – | – | 36.3 ± 3.14 | 26.2 ± 3.98 | 13.2 ± 1.38 | 22.2 ± 1.06
C[N+]1(Cc2ccc(-c3nnc(-c4ccc([N+](=O)[O-])cc4)o3)cc2)CCc2[nH]c3ccccc3c2C1 (stereo not shown) [Compound D] | 5.39 ± 0.55 | 2.31 ± 0.29 | 1.69 ± 0.46 | 5.64 ± 2.47 | – | – | – | –
C[N+]1(C)CCC2(CC1)Oc1ccccc1C1CC(c3ccc(-c4ccccc4)cc3)=NN12 (stereo not shown) [F] | – | – | – | – | 84.2 ± 6 | 192 ± 29.8 | 151 ± 61.7 | 32.9 ± 3.88
CCCC[N+]1(CC#CC2(O)c3ccccc3-c3ccccc32)CCC(c2ccccc2)C1 (stereo not shown) [C] | 761 ± 128 | 239 ± 2.95 | 92.1 ± 39.7 | 0.75 ± 0.18 | – | – | – | –
C[N+]1(C)CCC2(CC1)Oc1ccccc1C1CC(c3ccc4ccccc4c3)=NN12 (stereo not shown) [G] | – | – | – | – | 344 ± 50.7 | 49.8 ± 15.3 | 70 ± 7.96 | 9.51 ± 6.94
c1ccc(-c2c3c(cc4ccccc24)C[N+]2(CCCC2)C3)cc1 [Compound E] | 342 ± 54.6 | 26.4 ± 5.3 | 512 ± 301 | 12.7 ± 7.66 | – | – | – | –

Source: article PMC4317581, “Virtual Screening of Acetylcholinesterase Inhibitors Using the Lipinski's Rule of Five and ZINC Databank” (BioMed Research International, 2015)
